Measured values taken from patent US20260306500A1, “METHOD OF INHIBITING ADENOSINE TRIPHOSPHATE SECRETION, METHOD OF INHIBITING HEPATIC STELLATE CELL ACTIVATION, METHOD OF DEACTIVATING HEPATIC STELLATE CELL, METHOD OF TREATING HEPATIC FIBROSIS, METHOD OF TREATING NON-ALCOHOLIC STEATOHEPATITIS, AND METHOD OF TREATING PSORIASIS” (Kurume University, priority 2023, published 2026).

System: mouse auricle
Assay: Imiquimod-induced psoriasis model, comparison with an anti-TNFα antibody (Example 19)
Format: in vivo
Description: The dorsal hair of mice was shaved and depilated (Day 0). To each of the left auricle and the depilated back of each mouse, 62.5 mg of 5% imiquimod cream (Beselna Cream 5%) was applied once daily a total of seven times (Days 1 to 7) in accordance with Example 18, to induce imiquimod-induced psoriasis (IMQ group). In the IMQ+IMG group, mice received oral administration of imeglimin (40 mg/kg) once daily (Day 1 to 7) after the imiquimod application. […] Thickness of the auricle was measured, and the degrees of erythema, desquamation, and infiltration in the affected area were rated on Days 1, 3, 5, 7, and 8 according to the PASI scoring of the DermNET Dermatology Resource (none: 0, mild: 1, moderate: 2, severe: 3, and very severe: 4). The resulting values were used to calculate the PASI score.
Further, for an auricle excised on Day 8, immunohistochemical staining was performed in the same manner as in Example 18, and auricular sections were imaged using a fluorescence microscope (BZ-X710; manufactured by Keyence Corporation).

C[C@@H]1N=C(N)NC(N(C)C)=N1 [imeglimin]
inhibitory effects on psoriatic symptoms by TMG1 immunohistochemical images (Day 8 (FIG. 42)): supported by the immunohistochemical images of TMG1 | erythema (excepted from the symptoms reduced) (imeglimin 40 mg/kg oral daily or infliximab 100 μg/mouse i.v. Days 1, 3, 5, N=5 (FIG. 38)): except erythema | typical psoriatic symptoms induced by imiquimod, except erythema (thickness, desquamation, infiltration, PASI score) (imeglimin 40 mg/kg oral daily or infliximab 100 μg/mouse i.v. Days 1, 3, 5, N=5 (FIGS. 37-41)): reduced | effect of imeglimin compared with infliximab (imeglimin 40 mg/kg oral vs infliximab 100 μg/mouse i.v.): almost equivalent, or imeglimin was more effective
